Data taken from EP4563146A1 (IRBM S.P.A., priority 2023, dated 2025).
Where two headings read alike, the source gives them in different places.

Assays:
[1] = target: Japanese encephalitis virus (JEV)-NS2B-NS3 protease (Japanese encephalitis virus, UniProt P32886, DEL1469-1493); experiment: JEV protease inhibition assay; type: biochemical
[2] = system: ZIKV replicon; experiment: ZIKV replication inhibition assay (NanoLuc replicon in Vero cells); conditions: Zika virus, Vero, 72 h
[3] = target: T1, West Nile Virus (WNV) NS2B-NS3 protease (West Nile virus, UniProt Q9Q6P4); experiment: WNV protease inhibition assay; type: biochemical; conditions: Table 4; letter codes for IC50
T1 construct: NS2B1423-1470); purchased R&D 2907-SE-020
Excerpt: WNV protease inhibition assay

[4] = read-out: ZIKA Cell_Nanoluc, Vero cells with stable ZIKV replicon, 72 h, Nano-Glo readout

| Structure (SMILES) | IC50 [1] [nM] | EC50 ([2]; read-out: ZIKA Cell_Nanoluc) [nM] | IC50 ([1]; read-out: JEV - NS3 protease, 600 nM enzyme, 10 µM Pyr-RTKR-AMC substrate, 25 °C) [nM] | IC50 [3] [nM] | EC50 [2, 4] [nM] |
| --- | --- | --- | --- | --- | --- |
| O=C([N-]c1c[n+]([C@H]2CC[C@@H](CNCC(F)(F)F)CC2)no1)Nc1cc(N2CCC(c3ccccc3)C2=O)cc(C(F)(F)F)c1 (stereo partly drawn) [Example 135, ((3-(2-Oxo-3-phenylpyrrolidin-1-yl)-5-(trifluoromethyl)phenyl)carbamoyl)(3-((1S,4S)-4-(((2,2,2-trifluoroethyl)amino)methyl)-cyclohexyl)-1,2,3-oxadiazol-3-ium-5-yl)amide] | > 20000 | 1000 to 20000 |  |  |  |
| O=C([N-]c1c[n+](C[C@H]2CC[C@@H](CNCC(F)(F)F)CC2)no1)Nc1cc(N2CCC(c3ccccc3)C2=O)cc(C(F)(F)F)c1 (some centres unmarked) [Example 139, ((3-(2-Oxo-3-phenylpyrrolidin-1-yl)-5-(trifluoromethyl)phenyl)carbamoyl)(3-(((1s,4s)-4-(((2,2,2-trifluoroethyl)amino)methyl)cyclohexyl)-methyl)-1,2,3-oxadiazol-3-ium-5-yl)amide] | > 20000 | 1000 to 20000 |  |  |  |
| O=C([N-]c1c[n+](C[C@H]2CC[C@H](NCC(F)(F)F)CC2)no1)Nc1cc(N2CC[C@H](c3ccccc3)C2=O)cc(C(F)(F)F)c1 [Example 144, ((3-((R)-2-Oxo-3-phenylpyrrolidin-1-yl)-5-(trifluoromethyl)phenyl)carbamoyl)(3-(((1r,4r)-4-((2,2,2-trifluoroethyl)amino)cyclohexyl)-methyl)-1,2,3-oxadiazol-3-ium-5-yl)amide] | 1000 to 20000 | 100 to 1000 |  |  |  |
| CN(C)C[C@H]1CC[C@H]([n+]2cc([N-]C(=O)Nc3cc(NC(=O)Cc4ccccc4)cc(C(F)(F)F)c3)on2)CC1 [Example 94, (3-((1R,4R)-4-((Dimethylamino)methyl)-cyclohexyl)-1,2,3-oxadiazol-3-ium-5-yl)((3-(2-phenylacetamido)-5-(trifluoromethyl)phenyl)-carbamoyl)amide] |  |  | 1000 to 20000 |  |  |
| CN(C)C[C@H]1CC[C@H]([n+]2cc([N-]C(=O)Nc3cc(NC(=O)C(F)c4ccccc4F)cc(C(F)(F)F)c3)on2)CC1 (stereo partly drawn) [Example 194, (3-((1R,4R)-4-((Dimethylamino)methyl)-cyclohexyl)-1,2,3-oxadiazol-3-ium-5-yl)((3-(2-fluoro-2-(2-fluorophenyl)acetamido)-5-(trifluoromethyl)phenyl)carbamoyl)amide] |  | < 100 |  | 100 to 1000 |  |
| Cc1ccccc1CC(=O)Nc1cc(NC(=O)[N-]c2c[n+]([C@H]3CCCC[C@H]3O)no2)cc(C(F)(F)F)c1 [Example 240, (3-((1S,2R)-2-Hydroxycyclohexyl)-1,2,3-oxadiazol-3-ium-5-yl)((3-(2-(o-tolyl)acetamido)-5-(trifluoromethyl)phenyl)carbamoyl)amide] |  |  |  | 100 to 1000 | 1000 to 20000 |
| CN(C)[C@H]1CCC[C@@H]([n+]2cc([N-]C(=O)Nc3ccnc(C(F)(F)F)c3)on2)C1 [Example 204, (3-((1R,3S)-3-(Dimethylamino)cyclohexyl)-1,2,3-oxadiazol-3-ium-5-yl)((2-(trifluoromethyl)-pyridin-4-yl)carbamoyl)amide] |  |  |  | 100 to 1000 | 1000 to 20000 |
| Cc1cnn(C)c1-c1ccc(C[n+]2cc([N-]C(=O)Nc3ccc(C#N)c(C(F)(F)F)c3)on2)cc1 [Example 238, ((4-Cyano-3-(trifluoromethyl)phenyl)-carbamoyl)(3-(4-(1,4-dimethyl-1H-pyrazol-5-yl)benzyl)-1,2,3-oxadiazol-3-ium-5-yl)amide] |  |  |  | 100 to 1000 | 1000 to 20000 |
| COC(=O)c1ccc(NC(=O)[N-]c2c[n+](Cc3ccc(-c4c(C)ncnc4C)cc3)no2)cc1C(F)(F)F [Example 262, (3-(4-(4,6-Dimethylpyrimidin-5-yl)benzyl)-1,2,3-oxadiazol-3-ium-5-yl)((4-(methoxy-carbonyl)-3-(trifluoromethyl)phenyl)carbamoyl) amide] |  |  |  | 100 to 1000 | 100 to 1000 |
